Measured values published in patent publication US20250205344A1, “2,4-DIOXOTETRAHYDROPYRIMIDINYL DERATIVES AS DEGRONS IN PROTACS” (GLAXOSMITHKLINE INTELLECTUAL PROPERTY DEVELOPMENT LIMITED, priority 2022, published 2025).
Where a name gives a salt, the structure may show the parent alone.

biological target: T1, Androgen Receptor (Homo sapiens, UniProt P10275, T878A); assay: Androgen Receptor Degradation Assay (Nano-Glo HiBiT); format: cell-based; conditions: LNCaP, 18 h, HiBiT-tagged AR in human LnCaP cells, read-out: mean asymptote max
T1 construct: the AR gene was modified, using CRISPR/Cas9 editing, so the expressed AR protein included an 11 amino acid HiBiT tag; endogenous in cells; host or cells: clonal LnCaP-derived line, AR gene edited by CRISPR/Cas9
Experimental: Degradation of Androgen Receptor protein in human LnCaP cells treated with PROTACs was quantified using the Nano-Glo® HiBiT Lytic Detection System (Promega) in 384 well assay plate format. A clonal LnCaP derived cell line was first established in which the AR gene was modified, using CRISPR/Cas9 editing, so the expressed AR protein included an 11 amino acid HiBiT tag at its amino-terminus. 10 mM DMSO stock solutions of PROTACs were prepared and diluted across an 11 concentration, 3 fold increment range, and 25 nL dispensed into a white opaque bottomed 384 well assay plate (Thermofisher) using an acoustic ECHO dispenser (Labcyte). […] For the assay, cells were detached from flask and resuspended with assay medium (FluoroBrite™ DMEM supplemented with 10% heat inactivated FBS, penicillin 50 U/mL and streptomycin 50 ug/mL (Thermofisher)). The cell suspension was centrifuged at 400 g for 5 min and the pellet resuspended in assay medium. 25 μL of cell suspension containing 10,000 cells was dispensed into each well of the assay plate containing the test compounds, which was then incubated for 18 h at 37° C./5% CO2. Control wells were included on each assay plate, with assay medium without cells being the no AR remaining 100% effect control, and cells treated with DMSO vehicle only, without PROTAC, the 0% effect control. 25 μL of Nano-Glo® HiBiT lysis buffer supplemented with LgBiT protein and Nano-Glo® substrate (Promega) was added to each well and the plate shaken at 500 rpm for 10 min at room temperature. The intensity of luminescence was measured using a PHERAstar microplate reader (BMG Labtech) and the % AR protein remaining in each well calculated by normalising the raw luminescence value to the above control wells. Parameters corresponding to the potency and efficacy estimates of the PROTACs were obtained from these normalised luminescence values using software (IDBS ActivityBase). These included the DC50 and the Dmax estimates. Two versions of the DC50, called relative DC50 and absolute DC50, were typically generated. These are the inflection point of a fitted 4 parameter sigmoidal response curve and the interpolated concentration of PROTAC corresponding to 50% of the protein being degraded, respectively. The Dmax parameter was the maximum experimentally observed degradation and the asymptote max parameter the fitted response curve asymptote maximum.

T1 sequence (P10275 whole entry T878A): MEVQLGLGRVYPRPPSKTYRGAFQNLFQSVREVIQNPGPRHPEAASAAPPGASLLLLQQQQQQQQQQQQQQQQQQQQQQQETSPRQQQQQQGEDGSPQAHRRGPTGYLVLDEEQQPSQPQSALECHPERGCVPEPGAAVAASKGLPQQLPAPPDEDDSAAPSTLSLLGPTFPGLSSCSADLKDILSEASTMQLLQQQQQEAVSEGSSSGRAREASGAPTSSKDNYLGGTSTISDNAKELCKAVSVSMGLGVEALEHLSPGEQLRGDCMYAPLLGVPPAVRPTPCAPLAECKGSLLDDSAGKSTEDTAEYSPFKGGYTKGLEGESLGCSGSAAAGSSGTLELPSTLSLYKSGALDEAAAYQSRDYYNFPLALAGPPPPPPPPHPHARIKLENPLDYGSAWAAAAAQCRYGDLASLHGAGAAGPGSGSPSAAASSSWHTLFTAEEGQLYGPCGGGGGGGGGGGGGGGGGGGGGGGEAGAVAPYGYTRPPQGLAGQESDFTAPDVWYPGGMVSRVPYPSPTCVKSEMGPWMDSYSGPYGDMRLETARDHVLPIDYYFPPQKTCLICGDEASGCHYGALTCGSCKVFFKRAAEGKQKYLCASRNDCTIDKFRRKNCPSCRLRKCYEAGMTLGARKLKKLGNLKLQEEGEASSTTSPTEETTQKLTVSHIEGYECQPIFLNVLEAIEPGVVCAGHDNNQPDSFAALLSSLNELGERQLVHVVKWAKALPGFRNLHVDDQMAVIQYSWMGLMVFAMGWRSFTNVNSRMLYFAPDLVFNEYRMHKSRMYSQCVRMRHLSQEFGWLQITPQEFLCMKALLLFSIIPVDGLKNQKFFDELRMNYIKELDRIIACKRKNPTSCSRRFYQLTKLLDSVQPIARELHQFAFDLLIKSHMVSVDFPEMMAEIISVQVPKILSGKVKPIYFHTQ
T1 sequence (Q96SW2 whole entry partner): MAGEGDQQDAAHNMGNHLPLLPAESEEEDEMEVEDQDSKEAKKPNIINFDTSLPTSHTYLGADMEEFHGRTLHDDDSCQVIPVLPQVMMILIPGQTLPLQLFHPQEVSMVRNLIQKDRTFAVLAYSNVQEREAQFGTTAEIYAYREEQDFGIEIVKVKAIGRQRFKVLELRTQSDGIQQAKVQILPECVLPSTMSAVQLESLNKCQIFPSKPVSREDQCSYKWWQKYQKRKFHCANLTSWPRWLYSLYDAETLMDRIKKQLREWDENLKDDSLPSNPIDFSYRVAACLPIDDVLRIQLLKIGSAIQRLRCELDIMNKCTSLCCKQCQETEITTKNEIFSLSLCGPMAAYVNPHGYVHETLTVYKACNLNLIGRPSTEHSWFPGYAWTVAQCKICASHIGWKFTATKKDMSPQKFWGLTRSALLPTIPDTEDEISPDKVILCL
T1 sequence (Q16531 whole entry partner): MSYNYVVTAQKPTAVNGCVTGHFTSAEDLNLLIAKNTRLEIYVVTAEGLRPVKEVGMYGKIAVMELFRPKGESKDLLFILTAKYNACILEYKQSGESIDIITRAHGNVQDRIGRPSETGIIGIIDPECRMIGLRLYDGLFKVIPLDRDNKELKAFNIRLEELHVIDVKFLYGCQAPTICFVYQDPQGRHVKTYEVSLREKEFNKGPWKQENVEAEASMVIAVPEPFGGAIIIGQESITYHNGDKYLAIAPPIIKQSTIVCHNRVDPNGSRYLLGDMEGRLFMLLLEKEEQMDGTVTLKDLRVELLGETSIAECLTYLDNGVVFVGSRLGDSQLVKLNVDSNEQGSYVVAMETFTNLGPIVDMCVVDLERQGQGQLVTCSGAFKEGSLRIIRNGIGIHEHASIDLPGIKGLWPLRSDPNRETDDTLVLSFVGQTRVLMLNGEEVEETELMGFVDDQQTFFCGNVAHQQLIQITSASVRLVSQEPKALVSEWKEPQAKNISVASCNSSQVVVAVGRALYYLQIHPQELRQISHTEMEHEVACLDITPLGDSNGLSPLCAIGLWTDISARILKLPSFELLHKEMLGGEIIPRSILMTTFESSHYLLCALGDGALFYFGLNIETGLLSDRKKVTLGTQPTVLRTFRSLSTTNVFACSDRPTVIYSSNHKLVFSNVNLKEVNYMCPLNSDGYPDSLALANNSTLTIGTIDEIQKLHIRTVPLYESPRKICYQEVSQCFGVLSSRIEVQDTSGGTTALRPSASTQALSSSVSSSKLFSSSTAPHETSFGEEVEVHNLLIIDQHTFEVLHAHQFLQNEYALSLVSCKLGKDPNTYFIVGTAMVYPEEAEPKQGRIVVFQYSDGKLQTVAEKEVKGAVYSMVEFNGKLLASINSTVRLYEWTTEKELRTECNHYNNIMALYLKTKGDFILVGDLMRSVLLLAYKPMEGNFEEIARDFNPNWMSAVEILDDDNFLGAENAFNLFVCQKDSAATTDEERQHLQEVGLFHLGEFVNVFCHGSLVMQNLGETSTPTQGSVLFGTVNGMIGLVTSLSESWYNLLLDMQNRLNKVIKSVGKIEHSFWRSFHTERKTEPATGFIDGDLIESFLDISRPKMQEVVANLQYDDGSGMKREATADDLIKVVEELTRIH

| Structure (SMILES) | Dmax [%] |
| --- | --- |
| CC1(C)[C@H](NC(=O)c2ccc(N3CCC(CN4CCC(n5ccc6c(N7CCC(=O)NC7=O)cncc65)CC4)CC3)nn2)C(C)(C)[C@H]1Oc1ccc(C#N)c(Cl)c1 [EAR56, N-((1r,3r)-3-(3-Chloro-4-cyanophenoxy)-2,2,4,4-tetramethylcyclobutyl)-6-(4-((4-(4-(2,4-dioxotetrahydropyrimidin-1(2H)-yl)-1H-pyrrolo[2,3-c]pyridin-1-yl)piperidin-1-yl)methyl)piperidin-1-yl)pyridazine-3-carboxamide] | ≥ 50 |
| N#Cc1ccc(O[C@H]2CC[C@H](NC(=O)c3ccc(N4C5CCC4CC(CN4CCC(n6ncc7c(N8CCC(=O)NC8=O)cccc76)CC4)C5)nn3)CC2)cc1Cl (some centres unmarked) [EAR230, N-((1r,4r)-4-(3-chloro-4-cyanophenoxy)cyclohexyl)-6-(3-((4-(4-(2,4-dioxotetrahydropyrimidin-1(2H)-yl)-1H-indazol-1-yl)piperidin-1-yl)methyl)-8-azabicyclo[3.2.1]octan-8-yl)pyridazine-3-carboxamide] | ≥ 50 |
| C[C@@H]1CN(C(=O)Nc2ccc(N3CCC(CN4CCC(n5ncc6c(N7CCC(=O)NC7=O)cccc65)CC4)CC3)nc2)[C@@H](C)CN1c1ccc(C#N)c(Cl)c1 [EAR138, (2S,5R)-4-(3-Chloro-4-cyanophenyl)-N-(6-(4-((4-(4-(2,4-dioxotetrahydropyrimidin-1(2H)-yl)-1H-indazol-1-yl)piperidin-1-yl)methyl)piperidin-1-yl)pyridin-3-yl)-2,5-dimethylpiperazine-1-carboxamide, formic acid salt] | ≥ 50 |
| N#Cc1ccc(O[C@H]2CC[C@H](NC(=O)c3ccc(N4CC5(CCC(CN6CCC(n7ncc8c(N9CCC(=O)NC9=O)cccc87)CC6)CC5)C4)nn3)CC2)cc1Cl [EAR225, N-((1r,4r)-4-(3-chloro-4-cyanophenoxy)cyclohexyl)-6-(7-((4-(4-(2,4-dioxotetrahydropyrimidin-1(2H)-yl)-1H-indazol-1-yl)piperidin-1-yl)methyl)-2-azaspiro[3.5]nonan-2-yl)pyridazine-3-carboxamide] | ≥ 50 |
| CC1(C)C(=O)N(c2ccc(C#N)c(C(F)(F)F)c2)C(=S)N1c1ccc(N2CCC(CCN3CCC(n4ncc5c(N6CCC(=O)NC6=O)cncc54)CC3)CC2)cc1 [EAR97, 4-(3-(4-(4-(2-(4-(4-(2,4-Dioxotetrahydropyrimidin-1(2H)-yl)-1H-pyrazolo[3,4-c]pyridin-1-yl)piperidin-1-yl)ethyl)piperidin-1-yl)phenyl)-4,4-dimethyl-5-oxo-2-thioxoimidazolidin-1-yl)-2-(trifluoromethyl)benzonitrile formate] | ≥ 50 |
| N#Cc1ccc(O[C@H]2CC[C@H](NC(=O)c3ccc(N4CCC(CN5CCC(n6ncc7c(N8CCC(=O)NC8=O)ccnc76)CC5)CC4)nn3)CC2)cc1C(F)(F)F [EAR210, N-((1r,4r)-4-(4-Cyano-3-(trifluoromethyl)phenoxy)cyclohexyl)-6-(4-((4-(4-(2,4-dioxotetrahydropyrimidin-1(2H)-yl)-1H-pyrazolo[3,4-b]pyridin-1-yl)piperidin-1-yl)methyl)piperidin-1-yl)pyridazine-3-carboxamide] | ≥ 50 |
| N#Cc1ccc(O[C@H]2CC[C@H](NC(=O)c3cnc(N4CCC(CN5CCC(n6ncc7c(N8CCC(=O)NC8=O)nccc76)CC5)CC4)cn3)CC2)cc1Cl [EAR203, N-((1r,4r)-4-(3-Chloro-4-cyanophenoxy)cyclohexyl)-5-(4-((4-(4-(2,4-dioxotetrahydropyrimidin-1(2H)-yl)-1H-pyrazolo[4,3-c]pyridin-1-yl)piperidin-1-yl)methyl)piperidin-1-yl)pyrazine-2-carboxamide hydrochloride] | ≥ 50 |
| N#Cc1ccc(O[C@H]2CC[C@H](NC(=O)c3cnc(N4CCC(CN5CCC(n6ncc7c(N8CCC(=O)NC8=O)cc(F)cc76)CC5)CC4)cn3)CC2)cc1Cl [EAR217, N-((1r,4r)-4-(3-chloro-4-cyanophenoxy)cyclohexyl)-5-(4-((4-(4-(2,4-dioxotetrahydropyrimidin-1(2H)-yl)-6-fluoro-1H-indazol-1-yl)piperidin-1-yl)methyl)piperidin-1-yl)pyrazine-2-carboxamide hydrochloride] | ≥ 50 |
| N#Cc1ccc(O[C@H]2CC[C@H](NC(=O)c3ccc(N4CC5CCC(C4)C5CN4CCC(n5ncc6c(N7CCC(=O)NC7=O)cccc65)CC4)nn3)CC2)cc1Cl (some centres unmarked) [EAR226, N-((1r,4r)-4-(3-chloro-4-cyanophenoxy)cyclohexyl)-6-(8-((4-(4-(2,4-dioxotetrahydropyrimidin-1(2H)-yl)-1H-indazol-1-yl)piperidin-1-yl)methyl)-3-azabicyclo[3.2.1]octan-3-yl)pyridazine-3-carboxamide] | ≥ 50 |
| N#Cc1ccc(O[C@H]2CC[C@H](NC(=O)c3cnc(N4CCC(C(=O)N5CCC(n6ccc7c(N8CCC(=O)NC8=O)cccc76)CC5)CC4)nc3)CC2)cc1C(F)(F)F [EAR68, N-((1r,4r)-4-(4-Cyano-3-(trifluoromethyl)phenoxy)cyclohexyl)-2-(4-(4-(4-(2,4-dioxotetrahydropyrimidin-1(2H)-yl)-1H-indol-1-yl)piperidine-1-carbonyl)piperidin-1-yl)pyrimidine-5-carboxamide] | ≥ 50 |
| N#Cc1ccc(O[C@H]2CC[C@H](NC(=O)c3ccc(N4CCC(OCCN5CCC(n6ncc7c(N8CCC(=O)NC8=O)cccc76)CC5)CC4)nn3)CC2)cc1Cl [EAR231, N-((1r,4r)-4-(3-chloro-4-cyanophenoxy)cyclohexyl)-6-(4-(2-(4-(4-(2,4-dioxotetrahydropyrimidin-1(2H)-yl)-1H-indazol-1-yl)piperidin-1-yl)ethoxy)piperidin-1-yl)pyridazine-3-carboxamide] | ≥ 50 |

Now from value to molecule:

| Dmax [%] | Structure (SMILES) |
| --- | --- |
| ≥ 50 | N#Cc1ccc(O[C@H]2CC[C@H](NC(=O)c3ccc(N4CCC(CN5CCC(n6ccc7c(N8CCC(=O)NC8=O)cccc76)CC5)CC4)nn3)CC2)cc1Cl [EAR23, N-((1r,4r)-4-(3-Chloro-4-cyanophenoxy)cyclohexyl)-6-(4-((4-(4-(2,4-dioxotetrahydropyrimidin-1(2H)-yl)-1H-indol-1-yl)piperidin-1-yl)methyl)piperidin-1-yl)pyridazine-3-carboxamide] |
| ≥ 50 | CC(C)n1ccc2c(N3CCC(=O)NC3=O)cc(C(=O)N3CCCC34CCN(CCCCCCc3ccc(C(=O)N[C@H]5CC[C@H](Oc6ccc(C#N)c(Cl)c6)CC5)cc3)CC4)cc21 [EAR86, N-((1r,4r)-4-(3-Chloro-4-cyanophenoxy)cyclohexyl)-4-(6-(1-(4-(2,4-dioxotetrahydropyrimidin-1(2H)-yl)-1-isopropyl-1H-indole-6-carbonyl)-1,8-diazaspiro[4.5]decan-8-yl)hexyl)benzamide] |
| ≥ 50 | CC(C)n1ccc2c(N3CCC(=O)NC3=O)cc(C(=O)N3CCC4(CCN(Cc5ccc(C(=O)N[C@H]6CC[C@H](Oc7ccc(C#N)c(Cl)c7)CC6)cc5)CC4)CC3)cc21 [EAR84, N-((1r,4r)-4-(3-Chloro-4-cyanophenoxy)cyclohexyl)-4-((9-(4-(2,4-dioxotetrahydropyrimidin-1(2H)-yl)-1-isopropyl-1H-indole-6-carbonyl)-3,9-diazaspiro[5.5]undecan-3-yl)methyl)benzamide] |
| ≥ 50 | N#Cc1ccc(O[C@H]2CC[C@H](NC(=O)c3ccc(N4CCC(CN5CCC6(CC5)CC(n5ccc7c(N8CCC(=O)NC8=O)cccc75)C6)CC4)nn3)CC2)cc1Cl [EAR185, N-((1r,4r)-4-(3-Chloro-4-cyanophenoxy)cyclohexyl)-6-(4-((2-(4-(2,4-dioxotetrahydropyrimidin-1(2H)-yl)-1H-indol-1-yl)-7-azaspiro[3.5]nonan-7-yl)methyl)piperidin-1-yl)pyridazine-3-carboxamide hydrochloride] |
| ≥ 50 | N#Cc1ccc(O[C@H]2CC[C@H](NC(=O)c3ccc(N4CCC(CN5CC[C@@H](n6ccc7c(N8CCC(=O)NC8=O)cccc76)[C@H](F)C5)CC4)nn3)CC2)cc1Cl [EAR144, N-((1r,4r)-4-(3-Chloro-4-cyanophenoxy)cyclohexyl)-6-(4-(((3R,4R)-4-(4-(2,4-dioxotetrahydropyrimidin-1(2H)-yl)-1H-indol-1-yl)-3-fluoropiperidin-1-yl)methyl)piperidin-1-yl)pyridazine-3-carboxamide, hydrochloride] |
| ≥ 50 | N#Cc1ccc(O[C@H]2CC[C@H](NC(=O)c3ccc(N4CCC(CN5CCC(n6ccc7c(N8CCC(=O)NC8=O)cc(F)cc76)CC5)CC4)nn3)CC2)cc1Cl [EAR31, N-((1r,4r)-4-(3-Chloro-4-cyanophenoxy)cyclohexyl)-6-(4-((4-(4-(2,4-dioxotetrahydropyrimidin-1(2H)-yl)-6-fluoro-1H-indol-1-yl)piperidin-1-yl)methyl)piperidin-1-yl)pyridazine-3-carboxamide hydrochloride] |
